The values below come from US5389616A, “Amino acid derivatives” (Hoffman-LaRoche Inc., priority 1988, dated 1995).

The IC50 is the concentration that gives 50% inhibition. Low values mean inhibition by little substance, high ones a need for much substance.

In this test the target is T1, human renin (Homo sapiens, UniProt P00797).
T1 sequence (P00797 67-406): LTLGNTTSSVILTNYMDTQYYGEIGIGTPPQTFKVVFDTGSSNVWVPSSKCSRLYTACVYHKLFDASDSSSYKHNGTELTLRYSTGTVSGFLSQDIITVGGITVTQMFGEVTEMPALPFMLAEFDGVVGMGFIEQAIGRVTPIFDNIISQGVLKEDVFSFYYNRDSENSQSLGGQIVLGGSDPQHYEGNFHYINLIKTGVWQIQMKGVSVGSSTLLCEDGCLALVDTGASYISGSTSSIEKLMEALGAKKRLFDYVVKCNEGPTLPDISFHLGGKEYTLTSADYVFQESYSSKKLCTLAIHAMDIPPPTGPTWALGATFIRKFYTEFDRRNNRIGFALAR
Nature of the test: In vitro test with pure human renin. Type of test: biochemical. As to conditions: human tetradecapeptide renin substrate (hTD), pH 7.4, incubated 3 hours at 37° C. or 4° C., angiotensin I production measured via RIA. On the procedure: In vitro test with pure human renin
The test is carried out in Eppendorf test tubes. The incubation mixture consists of (1) 100μl of human renin in buffer A (0.1M sodium phosphate solution, pH 7.4, containing 0.1% bovine serum albumin, 0.1% sodium azide and 1 mM ethylenediaminetetraacetic acid), sufficient for a renin activity of 2--3 ng of angiotensin I/ml/hr.; (2) 145 μl of buffer A; (3) 30 μl of 10 μM human tetradecapeptide renin substrate (hTD) in 10 mM hydrochloric acid; (4) 15 μl of dimethyl sulphoxide with or without inhibitor and (5) 10 μl of a 0.03 molar solution of hydroxyquinoline sulphate in water.
The samples are incubated for 3 hours at 37° C. or 4° C. in triplicate. 2 ×100 μl samples per experimental test tube are used in order to measure the production of angiotensin I via RIA (standard radioimmunoassay; clinical assay solid phase kit). Cross reactivities of the antibody used in the RIA are: angiotensin I 100%; angiotensin II 0.0013%; hTD (angiotensin I-Val-Ile-His-Ser-OH) 0.09%. The production of angiotensin I is determined by the difference between the experiment at 37° C. and that at 4° C.
The following controls are carried out:
(a) Incubation of hTD samples without renin and without inhibitor at 37° C. and 4° C. The difference between these two values gives the base value of angiotensin I production.
(b) Incubation of hTD samples with renin, but without inhibitor at 37° C. and 4° C. The difference between these values gives the maximal-value of angiotensin I production.
In each sample the base value of the angiotensin I production is subtracted from the angiotensin I production which is determined. The difference between the maximal value and the base value gives the value of the maximal substrate hydrolysis (=100%) by renin.
The results are given as IC50 values which denote that concentration of the inhibitor at which the enzymatic activity is inhibited by 50%. The IC50 values are determined from a linear regression curve from a logit-log plot.

`CCC(CC)C(O)[C@H](O)[C@H](CC1CCCCC1)NC(=O)[C@H](Cc1c[nH]cn1)NC(=O)[C@@H](CC(=O)C(C)(C)C)Cc1ccccc1` (mixture of isomers) [A, (S)-N-[(1S,2R,3RS)-1-(Cyclohexylmethyl)-4-ethyl-2,3-dihydroxyhexyl]-α-[(R)-α-(3,3-dimethyl-2-oxobutyl)hydrocinnamamido]imidazole-4-propionamide]: inhibition was half-maximal at 24 nM (IC50).

`CC(C)(C)C(O)[C@H](O)[C@H](CC1CCCCC1)NC(=O)[C@H](Cc1c[nH]cn1)NC(=O)[C@H](Cc1ccccc1)CS(=O)(=O)C(C)(C)C` (mixture of isomers) [F, (S)-α-[(S)-α-[(t-butylsulphonyl)methyl]hydrocinnamamido]-N-[(1S,2R,3RS)-1-(cyclohexylmethyl)-2,3-dihydroxy-4,4-dimethylpentyl]imidazole-4-propionamide] showed a half-maximal inhibitory concentration (IC50) of 38 nM. This IC50 lies about 1.6-fold higher than the previous one.

The compound `CC(C)(C)C(=O)C[C@@H](Cc1ccccc1)C(=O)N[C@@H](Cc1c[nH]cn1)C(=O)N[C@@H](CC1CCCCC1)[C@@H](O)[C@@H](O)C1CCCCC1` [B, (S)-N-[(1S,2R,3S)-3-cyclohexyl-1-(cyclohexylmethyl)-2,3-dihydroxypropyl]-α-[(R)-α-(3,3-dimethyl-2-oxobutyl)-hydrocinnamamido]imidazole-4-propionamide] displayed an IC50 of 1 nM.

For `CC(C)[C@H](O)[C@H](O)[C@H](CC1CCCCC1)NC(=O)[C@H](Cc1c[nH]cn1)NC(=O)[C@@H](CC(=O)C(C)(C)C)Cc1ccccc1` [C, (S)-N-[(1S,2R,3S)-1-(cyclohexylmethyl)-2,3-dihydroxy-4-methylpentyl]-α-[(R)-α-(3,3-dimethyl-2-oxobutyl)hydrocinnamamido]imidazole-4-propionamide], half-maximal inhibition (IC50) required 3 nM.

Regarding `CC(C)(C)S(=O)(=O)C[C@@H](Cc1ccccc1)C(=O)N[C@@H](Cc1c[nH]cn1)C(=O)N[C@@H](CC1CCCCC1)[C@@H](O)[C@@H](O)c1ccccc1` [D, (S)-α-[(S)-α-[(t-butylsulphonyl)methyl]hydrocinnamamido]-N-[(1S,2R,3S)-1-(cyclohexylmethyl)-2,3-dihydroxy-3-phenylpropyl]imidazole-4-propionamide], inhibition was half-maximal at 7 nM (IC50). Against the preceding compound, the IC50 is about 2.3-fold higher.

Compound `CC(C)(C)S(=O)(=O)C[C@@H](Cc1ccccc1)C(=O)N[C@@H](Cc1c[nH]cn1)C(=O)N[C@@H](CC1CCCCC1)[C@@H](O)[C@H](O)c1ccccc1` [E, (S)-α-[(S)-α-[(t-butylsulphonyl)methyl]hydrocinnamamido]-N-[(1S,2R,3R)-1-(cyclohexylmethyl)-2,3-dihydroxy-3-phenylpropyl]imidazole-4-propionamide] showed an IC50 of 170 nM.

`CC(C)[C@H](O)[C@H](O)[C@H](CC1CCCCC1)NC(=O)[C@H](Cc1c[nH]cn1)NC(=O)[C@H](Cc1ccccc1)CS(=O)(=O)C(C)(C)C` [G, (S)-α-[(S)-α-[(t-butylsulphonyl)methyl]hydrocinnamamido]-N-[(1S,2R,3S)-1-(cyclohexylmethyl)-2,3-dihydroxy-4-methylpentyl]imidazole-4-propionamide] gave an IC50 of 2 nM.

Take `CC(C)(C)S(=O)(=O)C[C@@H](Cc1ccccc1)C(=O)N[C@@H](Cc1c[nH]cn1)C(=O)N[C@@H](CC1CCCCC1)[C@@H](O)[C@@H](O)C1CCCCC1` [H, (S)-α-[(S)-α-[(t-butylsulphonyl)methyl]hydrocinnamamido]-N-[(1S,2R,3S)-3-cyclohexyl-1-(cyclohexylmethyl)-2,3-dihydroxypropyl]imidazole-4-propionamide]: the IC50 was 2 nM.
